Usually IC50 stands for the midpoint of a concentration-inhibition curve.

Data on 16 compounds can be found in patent US12060349B2, “Glucosylceramide synthase inhibitors” (Genzyme Corporation, priority 2012, dated 2024).

Where two headings read alike, the source gives them in different places.

For test [1], the system named is GM3 expression on the cell surface, B16 mouse melanoma cells. Briefly: cell based phenotypic assay, cell surface GM3 by antibody mediated immunofluorescence, B16 (GM3 B16 IC50). The following applies: Mus musculus, 50% inhibition of GM3 expression on the cell surface. Here is the method: (§1) The cell based assay was performed in two different cell types, B16 and C32. Cell viability was also assessed in the second, cell-based assay.
(§2) The “Compound Number” in the table corresponds to the compound disclosed in the Example of the same number. […] The results of the cell based assays (performed in two different cell systems, i.e. B16 mouse melanoma or C32 human melanoma cells) are expressed as “GM3 B16 IC50” or “GM3 C32 IC50” for the B16 assay and the C32 assay, respectively. […] The results of the viability assays are expressed as “Viability, B16 IC50” or “Viability, C32 IC50”, respectively. These values represent the concentration of the compound causing 50% cell death. Values greater than 10 represent a lack of cell death.

Test [2] has as its target T1, glucosylceramide synthase (Homo sapiens, UniProt Q16739).
T1 construct: Microsomes were isolated from A375 human melanoma cells; endogenous in cells; host or cells: A375 human melanoma cells (microsomal fraction, 100,000 g pellet)
T1 sequence (Q16739 1-394): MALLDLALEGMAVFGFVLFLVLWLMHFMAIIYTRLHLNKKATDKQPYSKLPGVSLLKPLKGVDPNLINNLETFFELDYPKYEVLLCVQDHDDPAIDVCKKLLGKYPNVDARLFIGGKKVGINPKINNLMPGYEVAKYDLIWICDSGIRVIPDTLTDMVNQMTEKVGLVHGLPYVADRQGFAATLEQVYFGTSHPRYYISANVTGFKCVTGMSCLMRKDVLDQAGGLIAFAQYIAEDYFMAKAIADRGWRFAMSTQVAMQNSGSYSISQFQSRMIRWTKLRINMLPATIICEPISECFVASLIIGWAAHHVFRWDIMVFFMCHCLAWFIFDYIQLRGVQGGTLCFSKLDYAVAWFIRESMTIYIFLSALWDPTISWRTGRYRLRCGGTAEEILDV
Briefly: microsomal assay measuring conversion of ceramide to glucosylceramide by HPLC (GCS IC50). The note with it: concentration causing 50% inhibition of glucosylceramide synthase activity. The class given is biochemical. The method, then: Inhibition of glucosylceramide synthase activity for certain compounds of the invention were measured with 1) a microsomal assay that directly measures the conversion of ceramide to glucosylceramide by HPLC and 2) second, cell based, phenotypic assay that monitors cell surface expression of the downstream lipid GM3 by antibody mediated immunofluorescence. The cell based assay was performed in two different cell types, B16 and C32. Cell viability was also assessed in the second, cell-based assay.
The “Compound Number” in the table corresponds to the compound disclosed in the Example of the same number. The results of the microsomal assay are expressed as “GCS IC50”, which represents the concentration of the compound causing 50% inhibition of glucosylceramide synthase activity. The results of the cell based assays (performed in two different cell systems, i.e. B16 mouse melanoma or C32 human melanoma cells) are expressed as “GM3 B16 IC50” or “GM3 C32 IC50” for the B16 assay and the C32 assay, respectively. These values represent the concentration of the compound causing 50% inhibition of GM3 expression on the cell surface. The results of the viability assays are expressed as “Viability, B16 IC50” or “Viability, C32 IC50”, respectively. These values represent the concentration of the compound causing 50% cell death. Values greater than 10 represent a lack of cell death.

For test [3], the system named is B16 mouse melanoma cells. Briefly: cell viability in the B16 cell-based assay (Viability, B16 IC50). The following applies: Mus musculus. The method, then:
as §1, §2

The subject of test [4] is GM3 expression on the cell surface, C32 human melanoma cells. Briefly: cell based phenotypic assay, cell surface GM3 by antibody mediated immunofluorescence, C32 (GM3 C32 IC50). The following applies: Homo sapiens, 50% inhibition of GM3 expression on the cell surface. Here is the method:
as §1, §2

Test [5] has as its system C32 human melanoma cells. Put plainly: cell viability in the C32 cell-based assay (Viability, C32 IC50). The note with it: Homo sapiens, concentration causing 50% cell death, values greater than 10 represent a lack of cell death. The method, then:
as §1, §2

[6] abbreviates: B16 mouse melanoma cells, read-out: GM3 B16 IC50.
Where [7] appears, read: B16, B16 cells, concentration causing 50% cell death, values greater than 10 represent a lack of cell death, read-out: Viability, B16 IC50.
Setting [8] is: C32 human melanoma cells, read-out: GM3 C32 IC50.
[9] abbreviates: C32, C32 cells, read-out: Viability, C32 IC50.
[10] abbreviates: read-out: GM3 B16 IC50, B16 mouse melanoma cells.
Where [11] appears, read: B16, read-out: Viability, B16 IC50.
Setting [12] is: read-out: GM3 C32 IC50, C32 human melanoma cells.
The mark [13] stands for this setting: C32, read-out: Viability, C32 IC50, C32 cells.

In the case of `CC(C)(NC(=O)NC1(C)CCN2CCC1CC2)c1ccc(Oc2ccc(C(=O)N3CC(F)(F)C3)cc2)cc1` (centres unmarked) [Example 303, 1-(2-(4-(4-(3,3-Difluoroazetidine-1-carbonyl)phenoxy)phenyl)propan-2-yl)-3-(4-methyl-1-aza-bicyclo[3.2.2]nonan-4-yl)urea], the IC50 is 38.9 nM in test [1] (setting [6]); 7.63 nM in test [2]; at least 10000 nM in test [3] (setting [7]); 1.24 nM in test [4] (setting [8]); 316 nM in test [5] (setting [9]).

As for `COCCOc1ccc(-c2cccc(C(C)(C)NC(=O)OC3CN4CCC3CC4)c2)nc1` (centres unmarked) [Example 309, Quinuclidin-3-yl 2-(3-(5-(2-methoxyethoxy)pyridin-2-yl)phenyl)propan-2-ylcarbamate], the IC50 was 188 nM in test [1] (setting [10]); 106 nM in test [2]; at least 10000 nM in test [3] (setting [11]); 14 nM in test [4] (setting [12]); 3160 nM in test [5] (setting [13]).

As to `COCCOc1ccc(-c2cccc(N3CCC(C(=O)NC4(C)CCN5CCC4CC5)CC3)c2)cc1` (centres unmarked) [Example 68, 1-(4′-(2-Methoxyethoxy)-[1,1′-biphenyl]-3-yl)-N-(4-methyl-1-azabicyclo[3.2.2]nonan-4-yl)piperidine-4-carboxamide], the IC50 amounted to 132 nM in test [1] (setting [6]); 21.3 nM in test [2]; 7120 nM in test [3] (setting [7]); 3.53 nM in test [4] (setting [8]); 3160 nM in test [5] (setting [9]).

As to `CC(C)(C)CCS(=O)(=O)c1ccc(C#CC(C)(C)NC(=O)OC2CN3CCC2CC3)cc1` (centres unmarked) [Example 334, Quinuclidin-3-yl (4-(4-((3,3-dimethylbutyl)sulfonyl)phenyl)-2-methylbut-3-yn-2-yl)carbamate], the IC50 in test [1] (setting [10]) was 317 nM; in test [2] it was 80.2 nM; in test [3] (setting [11]), 3280 nM; in test [4] (setting [12]) it was 11.8 nM; in test [5] (setting [13]) it was at least 10000 nM.

For `COCCOc1ccc(-c2ccc(C(C)(C)NC(=O)OC3CN4CCC3CC4)cc2)cc1` (centres unmarked) [Example 155, Quinuclidin-3-yl (2-(4′-(2-methoxyethoxy)-[1,1′-biphenyl]-4-yl)propan-2-yl)carbamate], the IC50 in test [1] (setting [10]) amounted to 38.6 nM; in test [2], 3.48 nM; in test [3] (setting [11]) it was 1000 nM; in test [4] (setting [12]), 0.657 nM; in test [5] (setting [13]), 215 nM.

`COCCOCc1ccc(-c2ccnc(N3CCC(F)(C(=O)N[C@]4(C)CN5CCC4CC5)CC3)n2)cc1` [Example 84, (S)-4-Fluoro-1-(4-(4-((2-methoxyethoxy)methyl)phenyl)pyrimidin-2-yl)-N-(3-methylquinuclidin-3-yl)piperidine-4-carboxamide]: the IC50 in test [1] (setting [6]) was 90.3 nM; in test [2] it was 5.35 nM; in test [3] (setting [7]) it was at least 10000 nM; in test [4] (setting [8]), 0.621 nM; in test [5] (setting [9]), 1000 nM.

With `CC(C)(C)CCS(=O)(=O)c1ccc(-c2ccc(C(C)(C)NC(=O)NC3(C)CCN4CCC3CC4)cc2)cc1` (centres unmarked) [Example 248, 1-(2-(4′-((3,3-Dimethylbutyl)sulfonyl)-[1,1′-biphenyl]-4-yl)propan-2-yl)-3-(4-methyl-1-azabicyclo[3.2.2]nonan-4-yl)urea], the IC50 in test [1] (setting [6]) was determined as 6.84 nM; in test [2] it was 0.804 nM; in test [3] (setting [7]), 7730 nM; in test [4] (setting [8]), 0.315 nM; in test [5] (setting [9]), 1000 nM.

As to `O=C(NC1CN2CCC1CC2)N1CCN(c2cccc(-c3ccccc3)c2)CC1` (centres unmarked) [Example 13, 4-([1,1′-Biphenyl]-3-yl)-N-(quinuclidin-3-yl)piperazine-1-carboxamide], the IC50 in test [1] (setting [6]) was 6800 nM; in test [2], 2470 nM; in test [3] (setting [7]), 8590 nM; in test [4] (setting [8]) it was 697 nM; in test [5] (setting [9]), at least 10000 nM.

Turning to `CC1(NC(=O)C2CCN(c3nccc(-c4cc(F)cc(F)c4)n3)CC2)CCN2CCC1CC2` (centres unmarked) [Example 65, 1-(4-(3,5-Difluorophenyl)pyrimidin-2-yl)-N-(4-methyl-1-azabicyclo[3.2.2]nonan-4-yl)piperidine-4-carboxamide], the IC50 in test [1] (setting [6]) was 56.1 nM; in test [2], 1.31 nM; in test [3] (setting [7]), 4140 nM; in test [4] (setting [8]) it was 0.0934 nM; in test [5] (setting [9]), 215 nM.

On to `COCCOc1ccc(-c2ccnc(N3CCC(C(=O)NC4(C)CCN5CCC4CC5)CC3)n2)cc1` (centres unmarked) [Example 66, 1-(4-(4-(2-Methoxyethoxy)phenyl)pyrimidin-2-yl)-N-(4-methyl-1-azabicyclo[3.2.2]nonan-4-yl)piperidine-4-carboxamide], for which the IC50 came to 69.3 nM in test [1] (setting [6]); 3.17 nM in test [2]; 8200 nM in test [3] (setting [7]); 0.329 nM in test [4] (setting [8]); 215 nM in test [5] (setting [9]).

Take `CC(C)(NC(=O)OC1CCN2CCC1CC2)c1ccc(Oc2ccc(C(=O)N3CCOCC3)cc2)cc1` (centres unmarked) [Example 282, 1-Azabicyclo[3.2.2]nonan-4-yl 2-(4-(4-(morpholine-4-carbonyl)phenoxy)phenyl)propan-2-ylcarbamate]: the IC50 was 660 nM in test [1] (setting [6]); 479 nM in test [2]; at least 10000 nM in test [3] (setting [7]); 40.4 nM in test [4] (setting [8]); 3160 nM in test [5] (setting [9]).

For `CC1(NC(=O)N2CCN(c3ccc(-c4ccccc4)cc3)CC2)CN2CCC1CC2` (centres unmarked) [Example 1, 4-([1,1′-Biphenyl]-4-yl)-N-(3-methylquinuclidin-3-yl)piperazine-1-carboxamide], the IC50 was 1260 nM in test [1] (setting [6]); 719 nM in test [2]; 7160 nM in test [3] (setting [7]); 109 nM in test [4] (setting [8]); at least 10000 nM in test [5] (setting [9]).

As for `CC1(NC(=O)C2CN(c3cccc(-c4ccc(F)cc4)c3)C2)CCN2CCC1CC2` (centres unmarked) [Example 114, 1-(4′-Fluoro-[1,1′-biphenyl]-3-yl)-N-(4-methyl-1-azabicyclo[3.2.2]nonan-4-yl)azetidine-3-carboxamide], the IC50 worked out at 272 nM in test [1] (setting [6]); 51 nM in test [2]; 3460 nM in test [3] (setting [7]); 11.1 nM in test [4] (setting [8]); 1000 nM in test [5] (setting [9]).

Take `COCCCOc1ccc(-c2nc(C(C)(C)NC(=O)OC3CCN4CCC3CC4)cs2)cc1` (centres unmarked) [Example 341, 1-Azabicyclo[3.2.2]nonan-4-yl (2-(2-(4-(3-methoxypropoxy)phenyl)thiazol-4-yl)propan-2-yl)carbamate]: the IC50 is 90.4 nM in test [1] (setting [6]); 19.3 nM in test [2]; at least 10000 nM in test [3] (setting [7]); 7.19 nM in test [4] (setting [8]); at least 10000 nM in test [5] (setting [9]).

In the case of `CCC1(NC(=O)NC(C)(C)c2ccc(-c3ccc(S(=O)(=O)CC4CC4)cc3)cc2)CN2CCC1CC2` (centres unmarked) [Example 239, 1-(2-(4′-((Cyclopropylmethyl)sulfonyl)-[1,1′-biphenyl]-4-yl)propan-2-yl)-3-(3-ethylquinuclidin-3-yl)urea], the IC50 in test [1] (setting [6]) was 28.5 nM; in test [2] it was 9.87 nM; in test [3] (setting [7]), at least 10000 nM; in test [4] (setting [8]), 3.21 nM; in test [5] (setting [9]), 1000 nM.

With `CC(C)(NC(=O)OC1CN2CCC1CC2)c1ccc(-c2ccc(S(C)(=O)=O)cc2)cc1` (centres unmarked) [Example 235, Quinuclidin-3-yl (2-(4′-(methylsulfonyl)-[1,1′-biphenyl]-4-yl)propan-2-yl)carbamate], the IC50 was 118 nM in test [1] (setting [10]); 111 nM in test [2]; at least 10000 nM in test [3] (setting [11]); 19.9 nM in test [4] (setting [12]); at least 10000 nM in test [5] (setting [13]).
